Reference: patent US10112937B2, “P2X7 modulators and methods of use” (Janssen Pharmaceutica NV, priority 2013, dated 2018)

Assays:
Type in all cases: cell-based
[1] = target: T1, human P2X7 (Homo sapiens (Human), UniProt Q99572); assay: P2X7 antagonism in human PBMCs (IL-1β release after LPS + Bz-ATP, ELISA)
[2] = target: rat P2X7 (Rattus norvegicus (Rat), UniProt Q64663); assay: Ca2+ flux (FLIPR) in 1321N1 cells expressing recombinant rat P2X7;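 note: Calcium-4 dye fluorescence change read 180 s after agonist addition, with cells preincubated 30 min with compound and dye in 96-well plates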
Method: P2X7 Antagonism in Recombinant Human P2X7 Cells or Recombinant Rat P2X7 Cells: (a) Ca^2+ Flux and (b) Radioligand Binding
1321N1 cells expressing the recombinant human or rat P2X7 channel was cultured in HyQ DME/(HyClone/Dulbecco's Modified Eagle Medium) high glucose supplemented with 10% Fetal Bovine Serum (FBS) and appropriate selection marker. Cells were seeded at a density of 25000 cells/well (96-well clear bottom black walled plates) in 100 μl volume/well. On the day of the experiment, cell plates were washed with assay buffer, containing (in mM): 130 NaCl, 2 KCl, 1 CaCl2, 1 MgCl2, 10 HEPES, 5 glucose; pH 7.40 and 300 mOs. After the wash, cells were loaded with the Calcium-4 dye (Molecular Device) and incubated in the dark for 60 minutes. Test compounds were prepared at 250× the test concentration in neat DMSO. Intermediate 96-well compound plates were prepared by transferring 1.2 μL of the compound into 300 μL of assay buffer. A further 3× dilution occurred when transferring 50 μL/well of the compound plate to 100 μL/well in the cell plate. Cells were incubated with test compounds and dye for 30 minutes. […] The fluorescence change was measured 180 seconds after adding the agonist.

[3] = target: T1, human P2X7; assay: Ca2+ flux (FLIPR) in 1321N1 cells expressing recombinant human P2X7; conditions: 1321N1 cells, recombinant human P2X7, 250 μM BzATP;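 note: cells loaded with Calcium-4 dye, preincubated with test compound for 30 min, fluorescence change read 180 s after agonist addition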
[4] = human PBMCs, test compound 10 μM
[5] = 1321N1 cells, recombinant rat P2X7, 250 μM BzATP
[6] = 10 μM test compound, human PBMCs, LPS + Bz-ATP

Chain of rat P2X7 (Q64663 whole entry): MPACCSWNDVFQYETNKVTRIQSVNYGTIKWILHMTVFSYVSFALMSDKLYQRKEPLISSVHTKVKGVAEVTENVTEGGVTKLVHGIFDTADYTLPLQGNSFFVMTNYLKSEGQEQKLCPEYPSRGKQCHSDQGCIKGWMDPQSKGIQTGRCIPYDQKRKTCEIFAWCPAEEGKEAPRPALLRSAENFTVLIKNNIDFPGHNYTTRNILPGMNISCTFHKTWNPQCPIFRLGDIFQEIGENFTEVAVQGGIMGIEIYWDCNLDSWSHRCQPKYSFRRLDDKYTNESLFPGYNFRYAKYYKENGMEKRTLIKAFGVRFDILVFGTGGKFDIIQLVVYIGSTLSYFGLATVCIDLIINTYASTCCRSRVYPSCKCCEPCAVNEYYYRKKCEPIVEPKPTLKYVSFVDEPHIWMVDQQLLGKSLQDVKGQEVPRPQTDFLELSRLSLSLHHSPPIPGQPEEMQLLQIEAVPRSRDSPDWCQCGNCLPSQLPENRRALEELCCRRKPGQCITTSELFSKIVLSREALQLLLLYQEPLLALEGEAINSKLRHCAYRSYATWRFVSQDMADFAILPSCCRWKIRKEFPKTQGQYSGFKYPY
T1 sequence (Q99572 whole entry): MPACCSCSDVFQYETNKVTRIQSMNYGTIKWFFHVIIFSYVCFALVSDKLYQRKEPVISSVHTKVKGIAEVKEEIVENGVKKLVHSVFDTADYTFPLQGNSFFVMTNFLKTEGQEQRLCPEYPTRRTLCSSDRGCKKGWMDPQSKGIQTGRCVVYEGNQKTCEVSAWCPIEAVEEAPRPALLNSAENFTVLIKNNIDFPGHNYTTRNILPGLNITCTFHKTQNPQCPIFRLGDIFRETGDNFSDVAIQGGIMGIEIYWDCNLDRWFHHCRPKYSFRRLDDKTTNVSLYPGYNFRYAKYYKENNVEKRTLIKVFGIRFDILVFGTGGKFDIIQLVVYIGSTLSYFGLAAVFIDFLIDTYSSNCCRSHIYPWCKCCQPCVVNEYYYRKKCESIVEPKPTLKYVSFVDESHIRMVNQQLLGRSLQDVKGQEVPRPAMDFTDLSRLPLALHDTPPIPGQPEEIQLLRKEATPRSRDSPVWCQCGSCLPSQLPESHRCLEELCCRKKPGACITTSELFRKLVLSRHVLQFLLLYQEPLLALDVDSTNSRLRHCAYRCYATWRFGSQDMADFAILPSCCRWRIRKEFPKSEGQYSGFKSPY

For `Cc1nc(-n2nnc3c2CCN(C(=O)c2cccc(C(F)(F)F)c2Cl)C3C)ncc1F` (single isomer, unassigned) [Example 306, (S*)-(2-chloro-3-(trifluoromethyl)phenyl)(1-(5-fluoro-4-methylpyrimidin-2-yl)-4-methyl-6,7-dihydro-1H-[1,2,3]triazolo[4,5-c]pyridin-5(4H)-yl)methanone], the “PBMC 10 μM (% control)” value [1, 4] was 2.5 % control, the “PBMC 10 μM (% control)” value ([1]; test compound 10 μM, LPS 30 ng/ml + 0.5 mM Bz-ATP) was 2.5 % control and the IC50 ([2]; 250 μM BzATP, Calcium-4 dye) was 5980 nM. It also gave an IC50 [2, 5] of 5980 nM.
In the case of `Cc1ccnc(-n2nnc3c2CCN(C(=O)c2ccnc(C(F)(F)F)c2F)[C@@H]3C)c1` (single isomer, unassigned) [Example 356, (R*)-(3-fluoro-2-(trifluoromethyl)pyridin-4-yl)(4-methyl-1-(4-methylpyridin-2-yl)-6,7-dihydro-1H-[1,2,3]triazolo[4,5-c]pyridin-5(4H)-yl)methanone], the “PBMC 10 μM (% control)” value [1, 4] is reported as −5.9 % control and the IC50 [2, 5] is reported as 120 nM.
For `Cc1ccnc(-n2nnc3c2CCN(C(=O)c2ccnc(C(F)(F)F)c2F)[C@H]3C)c1` (single isomer, unassigned) [Example 357, (S*)-(3-fluoro-2-(trifluoromethyl)pyridin-4-yl)(4-methyl-1-(4-methylpyridin-2-yl)-6,7-dihydro-1H-[1,2,3]triazolo[4,5-c]pyridin-5(4H)-yl)methanone], the “PBMC 10 μM (% control)” value [1, 4] was 42.4 % control and the IC50 [2, 5] was 16200 nM.
With `Cc1ccnc(-n2nnc3c2CCN(C(=O)c2cccc(OC(F)(F)F)c2)C3C)c1` (single isomer, unassigned) [Example 377, (S*)-(4-methyl-1-(4-methylpyridin-2-yl)-6,7-dihydro-1H-[1,2,3]triazolo[4,5-c]pyridin-5(4H)-yl)(3-(trifluoromethoxy)phenyl)methanone] the IC50 [3] was 5510 nM and the “PBMC 10 μM (% control)” value [1, 4] was 8.1 % control.
With `Cc1cc(-n2nnc3c2CCN(C(=O)c2cccc(C(F)(F)F)c2Cl)[C@@H]3C)ncc1F` (single isomer, unassigned) [Example 382, (R*)-(2-chloro-3-(trifluoromethyl)phenyl)(1-(5-fluoro-4-methylpyridin-2-yl)-4-methyl-6,7-dihydro-1H-[1,2,3]triazolo[4,5-c]pyridin-5(4H)-yl)methanone] the “PBMC 10 μM (% control)” value [1, 4] was −2.7 % control and the IC50 [2, 5] was 56.6 nM.
`Cc1cccc(-n2nnc3c2CCN(C(=O)c2cccc(C(F)(F)F)c2F)[C@H]3C)n1` (single isomer, unassigned) [Example 387, (S*)-(2-fluoro-3-(trifluoromethyl)phenyl)(4-methyl-1-(6-methylpyridin-2-yl)-6,7-dihydro-1H-[1,2,3]triazolo[4,5-c]pyridin-5(4H)-yl)methanone] was tested, and the “PBMC 10 μM (% control)” value [1, 4] was 8.4 % control and the IC50 [2, 5] was 161 nM.
`O=C(c1cccc(C(F)(F)F)c1Cl)N1CCc2c(ncn2-c2ccccn2)C1` [Example 1, (2-Chloro-3-(trifluoromethyl)phenyl)(1-(pyridin-2-yl)-6,7-dihydro-1H-imidazo[4,5-c]pyridin-5(4H)-yl)methanone] was tested, and the IC50 [3] was 4.1 nM.
Molecule `CC1c2ncn(-c3cnccn3)c2CCN1C(=O)c1cccc(C(F)(F)F)c1F` (centres unmarked) [Example 14, (2-Fluoro-3-(trifluoromethyl)phenyl)(4-methyl-1-(pyrazin-2-yl)-6,7-dihydro-1H-imidazo[4,5-c]pyridin-5(4H)-yl)methanone] has an IC50 [2, 5] of 122 nM.
`CC1c2ncn(-c3ncccn3)c2CCN1C(=O)c1cccc(C(F)(F)F)c1Cl` (centres unmarked) [Example 23, (2-Chloro-3-(trifluoromethyl)phenyl)(4-methyl-1-(pyrimidin-2-yl)-6,7-dihydro-1H-imidazo[4,5-c]pyridin-5(4H)-yl)methanone] was tested, and the “PBMC 10 μM (% control)” value [1, 4] was 6.4 % control and the IC50 [2, 5] was 113 nM.
With `CCOC(=O)C1c2ncn(-c3ccccc3)c2CCN1C(=O)c1cccc(Cl)c1Cl` (centres unmarked) [Example 27, Ethyl 5-(2,3-dichlorobenzoyl)-1-phenyl-4,5,6,7-tetrahydro-1H-imidazo[4,5-c]pyridine-4-carboxylate] the IC50 [2, 5] was 2810 nM.
Work on `CN(C)CC1c2ncn(-c3ccccn3)c2CCN1C(=O)c1cccc(C(F)(F)F)c1Cl` (centres unmarked) [Example 31, 1-(5-{[2-Chloro-3-(trifluoromethyl)phenyl]carbonyl}-1-pyridin-2-yl-4,5,6,7-tetrahydro-1H-imidazo[4,5-c]pyridin-4-yl)-N,N-dimethylmethanamine] yielded an IC50 [2, 5] of 333 nM.
For `O=C(c1cccc(C(F)(F)F)c1Cl)N1CCc2c(ncn2-c2ccccn2)C1CF` (centres unmarked) [Example 32, (2-Chloro-3-(trifluoromethyl)phenyl)(4-(fluoromethyl)-1-(pyridin-2-yl)-6,7-dihydro-1H-imidazo[4,5-c]pyridin-5(4H)-yl)methanone], the “PBMC 10 μM (% control)” value [1, 4] was 1.9 % control and the IC50 [2, 5] was 47.5 nM.
With `CN(C)C(=O)C1c2ncn(-c3ccccn3)c2CCN1C(=O)c1cccc(C(F)(F)F)c1Cl` (centres unmarked) [Example 34, 5-{[2-Chloro-3-(trifluoromethyl)phenyl]carbonyl}-N,N-dimethyl-1-pyridin-2-yl-4,5,6,7-tetrahydro-1H-imidazo[4,5-c]pyridine-4-carboxamide] the IC50 [2, 5] was 279 nM.
Molecule `O=C(OCC1c2ncn(-c3ccccc3)c2CCN1C(=O)c1cccc(C(F)(F)F)c1Cl)c1cccc(C(F)(F)F)c1Cl` (centres unmarked) [Example 36, (5-{[2-Chloro-3-(trifluoromethyl)phenyl]carbonyl}-1-phenyl-4,5,6,7-tetrahydro-1H-imidazo[4,5-c]pyridin-4-yl)methyl 2-chloro-3-(trifluoromethyl)benzoate] has an IC50 [3] of 3390 nM.
With `CC1(C)c2ncn(-c3ccccc3)c2CCN1C(=O)c1cccc(C(F)(F)F)c1Cl` [Example 53, 5-{[2-Chloro-3-(trifluoromethyl)phenyl]carbonyl}-4,4-dimethyl-1-phenyl-4,5,6,7-tetrahydro-1H-imidazo[4,5-c]pyridine] the “PBMC 1 μM (% control)” value ([1]; human PBMCs, test compound 1 μM) was 99.0 % control and the IC50 [2, 5] was 3150 nM.
`O=C(c1cccc(C(F)(F)F)c1Cl)N1CCc2c(nnn2-c2ccccn2)C1` [Example 63, 5-{[2-Chloro-3-(trifluoromethyl)phenyl]carbonyl}-1-pyridin-2-yl-4,5,6,7-tetrahydro-1H-[1,2,3]triazolo[4,5-c]pyridine] gave an IC50 [2, 5] of 1450 nM.
With `CC1c2ncn(-c3ccc(F)cn3)c2CCN1C(=O)c1cccc(C(F)(F)F)c1F` (centres unmarked) [Example 262, (2-fluoro-3-(trifluoromethyl)phenyl)(1-(5-fluoropyridin-2-yl)-4-methyl-6,7-dihydro-1H-imidazo[4,5-c]pyridin-5(4H)-yl)methanone] the “PBMC 10 μM (% control)” value [1, 4] was −3.6 % control and the IC50 [2, 5] was 3470 nM.
With `O=C(c1cccc(C(F)(F)F)c1F)N1CCc2c(ncn2-c2ccc(F)cn2)C1` [Example 314, (2-fluoro-3-(trifluoromethyl)phenyl)(1-(5-fluoropyridin-2-yl)-6,7-dihydro-1H-imidazo[4,5-c]pyridin-5(4H)-yl)methanone] the IC50 [3] was 3540 nM.
`Cc1ccnc(-n2nnc3c2CCN(C(=O)c2ccnc(C(F)(F)F)c2F)C3C)c1` (centres unmarked) [Example 355, (3-fluoro-2-(trifluoromethyl)pyridin-4-yl)(4-methyl-1-(4-methylpyridin-2-yl)-6,7-dihydro-1H-[1,2,3]triazolo[4,5-c]pyridin-5(4H)-yl)methanone] was tested, and the “PBMC 10 μM (% control)” value [1, 4] was −2.0 % control and the IC50 [2, 5] was 394 nM.
For `Cc1cc(-n2nnc3c2CCN(C(=O)c2ccc(Cl)c(C(F)(F)F)c2)C3C)ncc1F` (centres unmarked) [Example 364, (4-chloro-3-(trifluoromethyl)phenyl)(1-(5-fluoro-4-methylpyridin-2-yl)-4-methyl-6,7-dihydro-1H-[1,2,3]triazolo[4,5-c]pyridin-5(4H)-yl)methanone], the “PBMC 10 μM (% control)” value [1, 4] was 4.8 % control and the IC50 [2, 5] was 5790 nM.
For `Cc1cc(-n2nnc3c2CCN(C(=O)c2cccc(C(F)(F)F)c2Cl)C3C)ncc1F` (centres unmarked) [Example 381, (2-chloro-3-(trifluoromethyl)phenyl)(1-(5-fluoro-4-methylpyridin-2-yl)-4-methyl-6,7-dihydro-1H-[1,2,3]triazolo[4,5-c]pyridin-5(4H)-yl)methanone], the “PBMC 10 μM (% control)” value [1, 4] was 4.1 % control and the IC50 [2, 5] was 234 nM.
In the case of `Cc1cccc(-n2nnc3c2CCN(C(=O)c2cccc(C(F)(F)F)c2F)C3C)n1` (centres unmarked) [Example 385, (2-fluoro-3-(trifluoromethyl)phenyl)(4-methyl-1-(6-methylpyridin-2-yl)-6,7-dihydro-1H-[1,2,3]triazolo[4,5-c]pyridin-5(4H)-yl)methanone], the “PBMC 10 μM (% control)” value [1, 4] is reported as 12.4 % control and the IC50 [2, 5] is reported as 57.8 nM.
In the case of `Cc1ccnc(-n2nnc3c2CCN(C(=O)c2cccc(Cl)c2C)C3C)c1` (centres unmarked) [Example 388, (3-chloro-2-methylphenyl)(4-methyl-1-(4-methylpyridin-2-yl)-6,7-dihydro-1H-[1,2,3]triazolo[4,5-c]pyridin-5(4H)-yl)methanone], the “PBMC 10 μM (% control)” value [1, 4] is reported as −18.8 % control and the IC50 [2, 5] is reported as 2280 nM.
`C[C@H]1Cc2c(nnn2-c2ccsc2)CN1C(=O)c1cccc(C(F)(F)F)c1Cl` [Example 420, (S)-(2-chloro-3-(trifluoromethyl)phenyl)(6-methyl-1-(thiophen-3-yl)-6,7-dihydro-1H-[1,2,3]triazolo[4,5-c]pyridin-5(4H)-yl)methanone] was tested, and the “PBMC 10 μM (% control)” value [1, 6] was 0.0 % control.
`C[C@H]1Cc2c(nnn2-c2ncc(O)cn2)CN1C(=O)c1ccnc(C(F)(F)F)c1F` [Example 429, (S)-(3-fluoro-2-(trifluoromethyl)pyridin-4-yl)(1-(5-hydroxypyrimidin-2-yl)-6-methyl-6,7-dihydro-1H-[1,2,3]triazolo[4,5-c]pyridin-5(4H)-yl)methanone] was tested, and the “PBMC 10 μM (% control)” value [1, 6] was 2.3 % control.
For `CC1c2n[nH]c(-c3cnccn3)c2CCN1C(=O)c1cccc(C(F)(F)F)c1Cl` (centres unmarked) [Example 438, (2-chloro-3-(trifluoromethyl)phenyl)(7-methyl-3-(pyrazin-2-yl)-4,5-dihydro-2H-pyrazolo[3,4-c]pyridin-6(7H)-yl)methanone], the “PBMC 10 μM (% control)” value [1, 6] was −10.8 % control and the IC50 ([2]; Ca2+ flux, 250 μM BzATP, rat P2X7 1321N1 cells) was 482 nM.
